Reference: PubChem BioAssay (NCI)
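In this assay, cells in 96-well plates receive the compound at five concentrations for 48 hours. Endpoints are linearly interpolated between the surrounding concentrations. At the GI50, growth is halved. TGI marks complete inhibition of growth.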

Tests used:
Experiment in all cases: inhibition of tumour cell growth, NCI panel, 48 h
786-0 renal = system: 786-0 renal
A498 renal = system: A498 renal
A549 NSCLC = system: A549 NSCLC
ACHN renal = system: ACHN renal
BT-549 breast = system: BT-549 breast
CAKI-1 renal = system: CAKI-1 renal
CCRF-CEM leukemia = system: CCRF-CEM leukemia
COLO 205 colon = system: COLO 205 colon
DU-145 prostate = system: DU-145 prostate
EKVX NSCLC = system: EKVX NSCLC
HCC-2998 colon = system: HCC-2998 colon
HCT-116 colon = system: HCT-116 colon
HCT-15 colon = system: HCT-15 colon
HL-60(TB) leukemia = system: HL-60(TB) leukemia
HOP-62 NSCLC = system: HOP-62 NSCLC
HOP-92 NSCLC = system: HOP-92 NSCLC
HS 578T breast = system: HS 578T breast
HT29 colon = system: HT29 colon
IGROV1 ovarian = system: IGROV1 ovarian
K-562 leukemia = system: K-562 leukemia
KM12 colon = system: KM12 colon
LOX IMVI melanoma = system: LOX IMVI melanoma
M14 melanoma = system: M14 melanoma
MALME-3M melanoma = system: MALME-3M melanoma
MCF7 breast = system: MCF7 breast
MDA-MB-231 breast = system: MDA-MB-231 breast
MDA-MB-435 = system: MDA-MB-435
MOLT-4 leukemia = system: MOLT-4 leukemia
NCI-H226 lung = system: NCI-H226 lung
NCI-H23 lung = system: NCI-H23 lung
NCI-H460 lung = system: NCI-H460 lung
NCI-H522 lung = system: NCI-H522 lung
NCI/ADR-RES ovarian = system: NCI/ADR-RES ovarian
OVCAR-3 ovarian = system: OVCAR-3 ovarian
OVCAR-4 ovarian = system: OVCAR-4 ovarian
OVCAR-5 ovarian = system: OVCAR-5 ovarian
OVCAR-8 ovarian = system: OVCAR-8 ovarian
PC-3 prostate = system: PC-3 prostate
RPMI-8226 leukemia = system: RPMI-8226 leukemia
RXF 393 renal = system: RXF 393 renal
SF-268 CNS = system: SF-268 CNS
SF-295 CNS = system: SF-295 CNS
SF-539 CNS = system: SF-539 CNS
SK-MEL-2 melanoma = system: SK-MEL-2 melanoma
SK-MEL-28 melanoma = system: SK-MEL-28 melanoma
SK-MEL-5 melanoma = system: SK-MEL-5 melanoma
SK-OV-3 ovarian = system: SK-OV-3 ovarian
SN12C renal = system: SN12C renal
SNB-19 CNS = system: SNB-19 CNS
SNB-75 CNS = system: SNB-75 CNS
SR leukemia = system: SR leukemia
SW-620 colon = system: SW-620 colon
T-47D breast = system: T-47D breast
TK-10 renal = system: TK-10 renal
U251 CNS = system: U251 CNS
UACC-257 melanoma = system: UACC-257 melanoma
UACC-62 melanoma = system: UACC-62 melanoma
UO-31 renal = system: UO-31 renal

Cc1nc(-c2ccccc2)n2nc(NCCCN3CCOCC3)ncc12
GI50 (786-0 renal): > 25 µM | TGI (786-0 renal): > 25 µM | GI50 (A498 renal): 6.5 µM | TGI (A498 renal): > 25 µM | GI50 (A549 NSCLC): > 25 µM | TGI (A549 NSCLC): > 25 µM | GI50 (ACHN renal): 10.4 µM | TGI (ACHN renal): > 25 µM | GI50 (BT-549 breast): > 25 µM | TGI (BT-549 breast): > 25 µM | GI50 (CAKI-1 renal): 6.86 µM | TGI (CAKI-1 renal): > 25 µM | GI50 (CCRF-CEM leukemia): > 25 µM | TGI (CCRF-CEM leukemia): > 25 µM | GI50 (COLO 205 colon): 19.1 µM | TGI (COLO 205 colon): > 25 µM | GI50 (DU-145 prostate): 22.7 µM | TGI (DU-145 prostate): > 25 µM | GI50 (EKVX NSCLC): > 25 µM | TGI (EKVX NSCLC): > 25 µM | GI50 (HCC-2998 colon): > 25 µM | TGI (HCC-2998 colon): > 25 µM | GI50 (HCT-116 colon): 19.4 µM | TGI (HCT-116 colon): > 25 µM | GI50 (HCT-15 colon): 12.8 µM | TGI (HCT-15 colon): > 25 µM | GI50 (HL-60(TB) leukemia): > 25 µM | TGI (HL-60(TB) leukemia): > 25 µM | GI50 (HOP-62 NSCLC): > 25 µM | TGI (HOP-62 NSCLC): > 25 µM | GI50 (HOP-92 NSCLC): 10.6 µM | TGI (HOP-92 NSCLC): > 25 µM | GI50 (HS 578T breast): 12.2 µM | TGI (HS 578T breast): > 25 µM | GI50 (HT29 colon): > 25 µM | TGI (HT29 colon): > 25 µM | GI50 (IGROV1 ovarian): 13.8 µM | TGI (IGROV1 ovarian): > 25 µM | GI50 (K-562 leukemia): > 25 µM | TGI (K-562 leukemia): > 25 µM | GI50 (KM12 colon): > 25 µM | TGI (KM12 colon): > 25 µM | GI50 (LOX IMVI melanoma): 15.1 µM | TGI (LOX IMVI melanoma): > 25 µM | GI50 (M14 melanoma): 16.5 µM | TGI (M14 melanoma): > 25 µM | GI50 (MALME-3M melanoma): > 17.9 µM | TGI (MALME-3M melanoma): > 25 µM | GI50 (MCF7 breast): > 25 µM | TGI (MCF7 breast): > 25 µM | GI50 (MDA-MB-231 breast): > 25 µM | TGI (MDA-MB-231 breast): > 25 µM | GI50 (MDA-MB-435): > 25 µM | TGI (MDA-MB-435): > 25 µM | GI50 (MOLT-4 leukemia): > 25 µM | TGI (MOLT-4 leukemia): > 25 µM | GI50 (NCI-H226 lung): > 8.17 µM | TGI (NCI-H226 lung): > 25 µM | GI50 (NCI-H23 lung): > 25 µM | TGI (NCI-H23 lung): > 25 µM | GI50 (NCI-H460 lung): 21.2 µM | TGI (NCI-H460 lung): > 25 µM | GI50 (NCI-H522 lung): > 25 µM | TGI (NCI-H522 lung): > 25 µM | GI50 (NCI/ADR-RES ovarian): > 25 µM | TGI (NCI/ADR-RES ovarian): > 25 µM | GI50 (OVCAR-3 ovarian): > 25 µM | TGI (OVCAR-3 ovarian): > 25 µM | GI50 (OVCAR-4 ovarian): 15.1 µM | TGI (OVCAR-4 ovarian): > 25 µM | GI50 (OVCAR-5 ovarian): > 25 µM | TGI (OVCAR-5 ovarian): > 25 µM | GI50 (OVCAR-8 ovarian): > 25 µM | TGI (OVCAR-8 ovarian): > 25 µM | GI50 (PC-3 prostate): > 25 µM | TGI (PC-3 prostate): > 25 µM | GI50 (RPMI-8226 leukemia): > 25 µM | TGI (RPMI-8226 leukemia): > 25 µM | GI50 (RXF 393 renal): 6.75 µM | TGI (RXF 393 renal): > 25 µM | GI50 (SF-268 CNS): > 25 µM | TGI (SF-268 CNS): > 25 µM | GI50 (SF-295 CNS): > 25 µM | TGI (SF-295 CNS): > 25 µM | GI50 (SF-539 CNS): > 25 µM | TGI (SF-539 CNS): > 25 µM | GI50 (SK-MEL-2 melanoma): 10.5 µM | TGI (SK-MEL-2 melanoma): > 25 µM | GI50 (SK-MEL-28 melanoma): > 25 µM | TGI (SK-MEL-28 melanoma): > 25 µM | GI50 (SK-MEL-5 melanoma): > 16.7 µM | TGI (SK-MEL-5 melanoma): > 25 µM | GI50 (SK-OV-3 ovarian): 6.1 µM | TGI (SK-OV-3 ovarian): 17.9 µM | GI50 (SN12C renal): > 25 µM | TGI (SN12C renal): > 25 µM | GI50 (SNB-19 CNS): > 25 µM | TGI (SNB-19 CNS): > 25 µM | GI50 (SNB-75 CNS): > 11.9 µM | TGI (SNB-75 CNS): > 25 µM | GI50 (SR leukemia): > 25 µM | TGI (SR leukemia): > 25 µM | GI50 (SW-620 colon): > 25 µM | TGI (SW-620 colon): > 25 µM | GI50 (T-47D breast): > 25 µM | TGI (T-47D breast): > 25 µM | GI50 (TK-10 renal): 19.1 µM | TGI (TK-10 renal): > 25 µM | GI50 (U251 CNS): > 25 µM | TGI (U251 CNS): > 25 µM | GI50 (UACC-257 melanoma): > 25 µM | TGI (UACC-257 melanoma): > 25 µM | GI50 (UACC-62 melanoma): > 25 µM | TGI (UACC-62 melanoma): > 25 µM | GI50 (UO-31 renal): 4.48 µM | TGI (UO-31 renal): 24.4 µM
